Test results reported in publication PMC10354048 (Communications Chemistry, 2023).
Converted amounts (≈) assume the structure as drawn. Where no end group is shown, it is not given here. [ ]: non-standard residue; d: D form. Trp(1-Me) = Cn1cc(C[C@H](N)C(=O)O)c2ccccc21

Tests used:
E. faecalis CW133003 = experiment: microbe, parasite or virus in culture; settings: broth microdilution per CSLI guidelines, Brain Heart Infusion broth, 5 × 10^5 CFU/mL, 37 °C, 20 h, range 64–0.125 µg/mL, average of three repeat assays
Description: (§1) Minimum inhibitory concentrations, determined by broth microdilution, are expressed as an average of three repeat assays. […] [a] MIC values expressed in μg/mL, [b] AC: American Type Culture Collection strain, [c] CW: CANWARD collection clinical isolate strain.33.
(§2) Minimum Inhibitory Concentrations (MIC) were determined for each of the bacteriocins and controls using a broth microdilution method, as per CSLI guidelines for microbial susceptibility testing. The peptides were dissolved in sterile deionized water to prepare the working stocks, with concentrations determined by UV absorbance at 280 nm[56]. Overnight cultures from the strains of interest were incubated with shaking overnight at 37 °C. Cation-adjusted Mueller Hinton Broth 2 (MHB 2) was used for the S. aureus, and S. epidermidis strains and Brain Heart Infusion (BHI) broth was utilized for the E. faecalis and E. faecium strains. The cultures were prepared and diluted to the turbidity of a 0.5 McFarland standard using MHB or BHI fresh media. Increasing concentrations of the leaderless bacteriocins were added to a 96-well polypropylene plate. The range tested for each bacteriocin was 64–0.125 µg/mL. The bacterial culture was further diluted and mixed in a 1:1 ratio with the bacteriocin solution to yield a final concentration in the wells of 5 × 10^5 CFU/mL. […] A 1:1000 dilution of the growth control was prepared in the respective media and plated onto agar (100 μL) to ensure the correct inoculum concentration (5 × 10^5 CFU/mL indicated by ≈ 50 bacterial colonies). The 96-well and agar plates were incubated at 37 °C, and growth was assessed by the formation of a pellet observable with the naked eye after 20 h. […] Each assay was performed in triplicate.
(§3) Materials and instruments […]
(§4) Minimum Inhibitory Concentration (MIC)
(§5) assays were conducted in 96-Well Clear polypropylene corner notch microplates (Corning, #11313595). For the […]

S. aureus AC29213 = experiment: microbe, parasite or virus in culture; settings: broth microdilution per CSLI guidelines, cation-adjusted Mueller Hinton Broth 2, 5 × 10^5 CFU/mL, 37 °C, 20 h, range 64–0.125 µg/mL, average of three repeat assays
Description: as §1, §2, §3, §4, §5

S. aureus CW113379 = experiment: microbe, parasite or virus in culture; settings: broth microdilution per CSLI guidelines, cation-adjusted Mueller Hinton Broth 2, 5 × 10^5 CFU/mL, 37 °C, 20 h, range 64–0.125 µg/mL, average of three repeat assays
Description: as §1, §2, §3, §4, §5

S. aureus CW114125 = experiment: microbe, parasite or virus in culture; settings: broth microdilution per CSLI guidelines, cation-adjusted Mueller Hinton Broth 2, 5 × 10^5 CFU/mL, 37 °C, 20 h, range 64–0.125 µg/mL, average of three repeat assays
Description: as §1, §2, §3, §4, §5

S. aureus CW115852 = experiment: microbe, parasite or virus in culture; settings: broth microdilution per CSLI guidelines, cation-adjusted Mueller Hinton Broth 2, 5 × 10^5 CFU/mL, 37 °C, 20 h, range 64–0.125 µg/mL, average of three repeat assays
Description: as §1, §2, §3, §4, §5

S. epidermidis CW131612 = experiment: microbe, parasite or virus in culture; settings: broth microdilution per CSLI guidelines, cation-adjusted Mueller Hinton Broth 2, 5 × 10^5 CFU/mL, 37 °C, 20 h, range 64–0.125 µg/mL, average of three repeat assays
Description: as §1, §2, §3, §4, §5

E. faecalis CW133346 = experiment: microbe, parasite or virus in culture; settings: broth microdilution per CSLI guidelines, Brain Heart Infusion broth, 5 × 10^5 CFU/mL, 37 °C, 20 h, range 64–0.125 µg/mL, triplicate
Description: as §2, §3
(§6) Minimum Inhibitory Concentration (MIC) assays were conducted in 96-Well Clear polypropylene corner notch microplates (Corning, #11313595). For the assay media, cation adjusted Mueller Hinton Broth 2 (Sigma Aldrich, #90922) was used for the S. aureus, and S. epidermidis strains and Brain Heart Infusion broth (BD, #221812) was used for the E. faecalis and E. faecium […]
(§7) used, as well as melittin prepared by automated SPPS. Experimental bacterial strains used were procured from the American Type Culture collection (S. aureus 29213) and the Canadian Antimicrobial Resistance Alliance

E. faecium CW130826 = experiment: microbe, parasite or virus in culture; settings: broth microdilution per CSLI guidelines, Brain Heart Infusion broth, 5 × 10^5 CFU/mL, 37 °C, 20 h, range 64–0.125 µg/mL, triplicate
Description: as §2, §3, §6, §7

E. faecium CW131126 = experiment: microbe, parasite or virus in culture; settings: broth microdilution per CSLI guidelines, Brain Heart Infusion broth, 5 × 10^5 CFU/mL, 37 °C, 20 h, range 64–0.125 µg/mL, triplicate
Description: as §2, §3, §6, §7

S. epidermidis CW130500 = experiment: microbe, parasite or virus in culture; settings: broth microdilution per CSLI guidelines, cation-adjusted Mueller Hinton Broth 2, 5 × 10^5 CFU/mL, 37 °C, 20 h, range 64–0.125 µg/mL, triplicate
Description: as §2, §3, §6, §7

[1] = molecular target: the molecule itself; experiment: SEC; analytical size exclusion chromatography in phosphate-buffered saline (pH 7.4), UV 210 nm

Row | Molecule | Minimum inhibitory concentration E. faecalis CW133003 (E. faecalis CW133003) [µg/mL] | Minimum inhibitory concentration S. aureus AC29213 (S. aureus AC29213) [µg/mL] | Minimum inhibitory concentration S. aureus CW113379 (S. aureus CW113379) [µg/mL] | Minimum inhibitory concentration S. aureus CW114125 (S. aureus CW114125) [µg/mL] | Minimum inhibitory concentration S. aureus CW115852 (S. aureus CW115852) [µg/mL] | Minimum inhibitory concentration S. epidermidis CW131612 (S. epidermidis CW131612) [µg/mL] | Minimum inhibitory concentration E. faecalis CW133346 (E. faecalis CW133346) [µg/mL] | Minimum inhibitory concentration E. faecium CW130826 (E. faecium CW130826) [µg/mL] | Minimum inhibitory concentration E. faecium CW131126 (E. faecium CW131126) [µg/mL] | Minimum inhibitory concentration S. epidermidis CW130500 (S. epidermidis CW130500) [µg/mL] | stoichiometry N [1] | binding result [1]
1 | CC[C@H](C)[C@H](NC(=O)CN)C(=O)NCC(=O)N[C@@H](C)C(=O)N[C@H](C(=O)N[C@@H](CC(C)C)C(=O)N[C@@H](CCCCN)C(=O)N[C@H](C(=O)N[C@@H](CC(C)C)C(=O)N[C@H](C(=O)N[C@H](C(=O)NCC(=O)N[C@@H](CC(C)C)C(=O)N1CCC[C@H]1C(=O)N[C@@H](C)C(=O)N[C@@H](CC(C)C)C(=O)N[C@H](C(=O)N[C@@H](CO)C(=O)N[C@@H](Cc1c[nH]c2ccccc12)C(=O)N[C@H](C(=O)N[C@@H](CCCCN)C(=O)N[C@@H](CCCNC(=N)N)C(=O)N[C@@H](CCCCN)C(=O)N[C@@H](CCCNC(=N)N)C(=O)N[C@@H](CCC(N)=O)C(=O)N[C@@H](CCC(N)=O)C(N)=O)[C@@H](C)CC)[C@@H](C)CC)[C@@H](C)O)[C@@H](C)O)C(C)C)C(C)C [Melittin, melittin, reference compound] | 16 (≈ 5.62 µM) | 8 (≈ 2.81 µM) | 4 (≈ 1.41 µM) | 8 (≈ 2.81 µM) | 4 (≈ 1.41 µM) | 4 (≈ 1.41 µM) | 16 (≈ 5.62 µM) | 8 (≈ 2.81 µM) | 8 (≈ 2.81 µM) | 8 (≈ 2.81 µM) | – | –
2 | MS[Trp(1-Me)]LNFLKYIAKYGKKAVSAAWKYKGKVLEWLNVGPTLEWVWQKLKKIAGL-NH2 [L-^1MeW3, L-aureocin A53 ^1MeTrp3 (Met^1-Leu^51)] | 2 | 4 | 4 | 4 | 8 | 8 | 1 | 2 | 2 | 4 | – | –
3 | MAGFLKVVQLLAKYGSKAVQLAWANKGKILDWLNAGQAIDWVVSKIKQILGIK-NH2 [L-W21L, L-lacticin Q W21L (Met^1-Lys^53)] | 8 | 16 | 16 | 32 | 32 | 16 | 4 | 4 | 4 | 16 | – | –
4 | [dM][dS][dW][dL][dN][dF][dL][dK][dY][dI][dA][dK][dY]G[dK][dK][dA][dV][dS][dA][dA][dW][dK][dY][dK]G[dK][dV][dL][dE][dW][dL][dN][dV]G[dP][dT][dL][dE][dW][dV][dW][dQ][dK][dL][dK][dK][dI][dA]G[dL]-NH2 [D-AucA, D-aureocin A53 (Met^1-Leu^51)] | 4 | 4 | 4 | 4 | 2 | 4 | 4 | 2 | 4 | 4 | – | –
5 | MAGFLKVVQLLAKYGSKAVQWAWANKGKILDWLNAGQAIDWVVSKIKQILGIK-NH2 [L-LnqQ, L-lacticin Q (Met^1-Lys^53)] | 2 | 16 | 32 | 32 | 64 | 8 | 4 | 2 | 2 | 16 | – | –
6 | aureocin A53 (L-AucA, wild type) (natural protein, also called AucA-wt; wild-type AucA; source: synthetic: native chemical ligation of two peptide segments and desulfurization, purified by semi-preparative HPLC) MSWLNFLKYIAKYGKKAVSAAWKYKGKVLEWLNVGPTLEWVWQKLKKIAGL | – | – | – | – | – | – | – | – | – | – | 2 | –
7 | AucA-W22L (natural protein, also called W22L variant; source: synthetic: automated SPPS on rink amide protide resin) MSWLNFLKYIAKYGKKAVSAALKYKGKVLEWLNVGPTLEWVWQKLKKIAGL | – | – | – | – | – | – | – | – | – | – | – | binds
